In PubChem BioAssay (NCI):
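In this assay, cells in 96-well plates receive the compound at five concentrations for 48 hours. Endpoints are linearly interpolated between the surrounding concentrations. At the GI50, growth is halved. TGI is the concentration that stops growth completely.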

Assays:
Assay in all cases: NCI-60 cell line screen, 48 h
UO-31 renal = tested on: UO-31 renal
IGROV1 ovarian = tested on: IGROV1 ovarian
CAKI-1 renal = tested on: CAKI-1 renal
SF-295 CNS = tested on: SF-295 CNS
LOX IMVI melanoma = tested on: LOX IMVI melanoma
EKVX NSCLC = tested on: EKVX NSCLC
SK-MEL-2 melanoma = tested on: SK-MEL-2 melanoma
MOLT-4 leukemia = tested on: MOLT-4 leukemia
MCF7 breast = tested on: MCF7 breast
HT29 colon = tested on: HT29 colon
PC-3 prostate = tested on: PC-3 prostate
ACHN renal = tested on: ACHN renal
OVCAR-5 ovarian = tested on: OVCAR-5 ovarian
HS 578T breast = tested on: HS 578T breast
SK-OV-3 ovarian = tested on: SK-OV-3 ovarian
U251 CNS = tested on: U251 CNS
M14 melanoma = tested on: M14 melanoma
KM12 colon = tested on: KM12 colon
UACC-257 melanoma = tested on: UACC-257 melanoma
NCI/ADR-RES ovarian = tested on: NCI/ADR-RES ovarian
786-0 renal = tested on: 786-0 renal
HCT-15 colon = tested on: HCT-15 colon
SNB-75 CNS = tested on: SNB-75 CNS
K-562 leukemia = tested on: K-562 leukemia
NCI-H23 lung = tested on: NCI-H23 lung
OVCAR-3 ovarian = tested on: OVCAR-3 ovarian
HCC-2998 colon = tested on: HCC-2998 colon
NCI-H460 lung = tested on: NCI-H460 lung
OVCAR-4 ovarian = tested on: OVCAR-4 ovarian
TK-10 renal = tested on: TK-10 renal
MALME-3M melanoma = tested on: MALME-3M melanoma
NCI-H226 lung = tested on: NCI-H226 lung
COLO 205 colon = tested on: COLO 205 colon
UACC-62 melanoma = tested on: UACC-62 melanoma
SW-620 colon = tested on: SW-620 colon
OVCAR-8 ovarian = tested on: OVCAR-8 ovarian
DU-145 prostate = tested on: DU-145 prostate
SNB-19 CNS = tested on: SNB-19 CNS
T-47D breast = tested on: T-47D breast
BT-549 breast = tested on: BT-549 breast
MDA-MB-435 = tested on: MDA-MB-435
SK-MEL-28 melanoma = tested on: SK-MEL-28 melanoma
HCT-116 colon = tested on: HCT-116 colon
MDA-MB-231 breast = tested on: MDA-MB-231 breast
SK-MEL-5 melanoma = tested on: SK-MEL-5 melanoma
A549 NSCLC = tested on: A549 NSCLC
HOP-92 NSCLC = tested on: HOP-92 NSCLC
HOP-62 NSCLC = tested on: HOP-62 NSCLC
SN12C renal = tested on: SN12C renal
SF-539 CNS = tested on: SF-539 CNS
RXF 393 renal = tested on: RXF 393 renal
SF-268 CNS = tested on: SF-268 CNS
NCI-H522 lung = tested on: NCI-H522 lung

`O=c1oc(Cl)c(Cl)c2ccccc12` gave a GI50 (UO-31 renal) of 22.4 µM, a TGI (UO-31 renal) of 47.9 µM and a GI50 (IGROV1 ovarian) of 23.2 µM. The TGI (IGROV1 ovarian) was 63.2 µM, the GI50 (CAKI-1 renal) was 21.5 µM and the TGI (CAKI-1 renal) was 39.6 µM. The GI50 (SF-295 CNS) was 39.4 µM, the TGI (SF-295 CNS) was greater than 100 µM and the GI50 (LOX IMVI melanoma) was 17.6 µM. It also gave a TGI (LOX IMVI melanoma) of 51.9 µM, a GI50 (EKVX NSCLC) of 18.8 µM and a TGI (EKVX NSCLC) of 44.3 µM. The GI50 (SK-MEL-2 melanoma) was 14.1 µM, the TGI (SK-MEL-2 melanoma) was 44.1 µM and the GI50 (MOLT-4 leukemia) was 9.19 µM. It also gave a TGI (MOLT-4 leukemia) of 78.2 µM, a GI50 (MCF7 breast) of 35.5 µM and a TGI (MCF7 breast) greater than 100 µM. For the same molecule, the GI50 (HT29 colon) was 34.9 µM, the TGI (HT29 colon) was greater than 100 µM and the GI50 (PC-3 prostate) was 17.8 µM. The TGI (PC-3 prostate) was 35.2 µM, the GI50 (ACHN renal) was 16.1 µM and the TGI (ACHN renal) was 39.7 µM. The GI50 (OVCAR-5 ovarian) was 18.7 µM, the TGI (OVCAR-5 ovarian) was 57.1 µM and the GI50 (HS 578T breast) was 35.1 µM. It also gave a TGI (HS 578T breast) of 96.2 µM, a GI50 (SK-OV-3 ovarian) of 59.8 µM and a TGI (SK-OV-3 ovarian) greater than 100 µM. For the same molecule, the GI50 (U251 CNS) was 21.2 µM, the TGI (U251 CNS) was 52.1 µM and the GI50 (M14 melanoma) was 41.3 µM. It also gave a TGI (M14 melanoma) greater than 100 µM, a GI50 (KM12 colon) of 35.8 µM and a TGI (KM12 colon) greater than 100 µM. For the same molecule, the GI50 (UACC-257 melanoma) was 93.8 µM, the TGI (UACC-257 melanoma) was greater than 100 µM and the GI50 (NCI/ADR-RES ovarian) was 18.1 µM. The TGI (NCI/ADR-RES ovarian) was 41.3 µM, the GI50 (786-0 renal) was 19.2 µM and the TGI (786-0 renal) was 40.4 µM. The GI50 (HCT-15 colon) was 23.1 µM, the TGI (HCT-15 colon) was 61.3 µM and the GI50 (SNB-75 CNS) was 24.7 µM. It also gave a TGI (SNB-75 CNS) of 59.3 µM, a GI50 (K-562 leukemia) of 27.2 µM and a TGI (K-562 leukemia) of 70.5 µM. For the same molecule, the GI50 (NCI-H23 lung) was 50.5 µM, the TGI (NCI-H23 lung) was greater than 100 µM and the GI50 (OVCAR-3 ovarian) was 11.7 µM. The TGI (OVCAR-3 ovarian) was 27.8 µM, the GI50 (HCC-2998 colon) was 44.3 µM and the TGI (HCC-2998 colon) was 73.9 µM. The GI50 (NCI-H460 lung) was 55.5 µM, the TGI (NCI-H460 lung) was greater than 100 µM and the GI50 (OVCAR-4 ovarian) was 30 µM. It also gave a TGI (OVCAR-4 ovarian) greater than 100 µM, a GI50 (TK-10 renal) of 82.5 µM and a TGI (TK-10 renal) greater than 100 µM. It also gave a GI50 (MALME-3M melanoma) of 50 µM, a TGI (MALME-3M melanoma) greater than 100 µM and a GI50 (NCI-H226 lung) of 22.2 µM. For the same molecule, the TGI (NCI-H226 lung) was 42.3 µM, the GI50 (COLO 205 colon) was 22.8 µM and the TGI (COLO 205 colon) was 63.7 µM. For the same molecule, the GI50 (UACC-62 melanoma) was 32.9 µM, the TGI (UACC-62 melanoma) was greater than 100 µM and the GI50 (SW-620 colon) was 19.7 µM. For the same molecule, the TGI (SW-620 colon) was 56.3 µM, the GI50 (OVCAR-8 ovarian) was 47.8 µM and the TGI (OVCAR-8 ovarian) was greater than 100 µM. For the same molecule, the GI50 (DU-145 prostate) was 18.3 µM, the TGI (DU-145 prostate) was 38.6 µM and the GI50 (SNB-19 CNS) was 27.9 µM. The TGI (SNB-19 CNS) was greater than 100 µM, the GI50 (T-47D breast) was 40.6 µM and the TGI (T-47D breast) was greater than 100 µM. It also gave a GI50 (BT-549 breast) of 20.8 µM, a TGI (BT-549 breast) of 41.2 µM and a GI50 (MDA-MB-435) of 22.3 µM. It also gave a TGI (MDA-MB-435) of 45.9 µM, a GI50 (SK-MEL-28 melanoma) of 46.5 µM and a TGI (SK-MEL-28 melanoma) greater than 100 µM. The GI50 (HCT-116 colon) was 31.9 µM, the TGI (HCT-116 colon) was 71.8 µM and the GI50 (MDA-MB-231 breast) was 24.8 µM. The TGI (MDA-MB-231 breast) was 68.4 µM, the GI50 (SK-MEL-5 melanoma) was 16.5 µM and the TGI (SK-MEL-5 melanoma) was 37 µM. It also gave a GI50 (A549 NSCLC) of 54.2 µM, a TGI (A549 NSCLC) greater than 100 µM and a GI50 (HOP-92 NSCLC) of 3.25 µM. The TGI (HOP-92 NSCLC) was 27.9 µM, the GI50 (HOP-62 NSCLC) was 25.9 µM and the TGI (HOP-62 NSCLC) was 48.9 µM. The GI50 (SN12C renal) was 14.8 µM, the TGI (SN12C renal) was 31.4 µM and the GI50 (SF-539 CNS) was 17 µM. For the same molecule, the TGI (SF-539 CNS) was 38.5 µM, the GI50 (RXF 393 renal) was 24.8 µM and the TGI (RXF 393 renal) was 52.2 µM. It also gave a GI50 (SF-268 CNS) of 38.2 µM, a TGI (SF-268 CNS) greater than 100 µM and a GI50 (NCI-H522 lung) greater than 100 µM. It also gave a TGI (NCI-H522 lung) greater than 100 µM.
